Test results: article doi:10.1101/2025.04.25.650653, “Hierarchical small molecule inhibition of MYST acetyltransferases” (bioRxiv, 2025)
“And” between values parts separate entries of the source, which are not always exact repeats. Equal entries are not always repeated.

Tested on: histone modifications in MCF-7 cells
Experiment: Histone modification analysis by bottom-up LC-MS/MS
Assay type: cell-based
Settings: Replicates 1-3
From the text: In this approach. […] Histones are then extracted from cell pellets and chemically derivatized with propionic anhydride, digested with trypsin, subjected to a second round of propionylation, and analyzed by LC-MS/MS. Measuring the relative intensity of modified versus unmodified forms of individual histone peptides enables simultaneous monitoring of multiple potential biomarkers of MYST inhibition. To minimize false positives, we focused on abundant and reproducible modifications (average stoichiometry of greater than 1% across triplicate samples, standard deviation less than or equal to the average measurement). To account for potential histone modification crosstalk, changes in both acetylated and methylated peptides were evaluated. 38 modified peptides passed this reproducible detection threshold including several established KAT biomarkers[41] including H3K9Ac (KAT2A/B), H3K18Ac (KAT3A/B), H3K14Ac (KAT7), H3K23Ac (KAT6A/B), H4K16Ac (KAT8), and H2A.ZK4/K7Ac (KAT5; Fig. 4B).
Histone modification analysis
MCF-7 cells were cultured at 37 °C under 5% CO2 in EMEM (Quality Biological, 112-016-101) with 0.01 mg/mL human recombinant insulin (Sigma Aldrich, 91077C), 2 mM L-glutamine (Quality Biological, 118- […]
human recombinant insulin.
1119, WM-3835). Following 24 h inhibitor treatment, cells were washed with ice-cold 1× PBS and scraped in 150 µL of Nuclear Isolation Buffer (NIB) containing 0.1% NP-40 for histone extraction using a modified protocol from the Garcia laboratory. 9 Briefly, cell suspensions were incubated on ice for 5 minutes, and […]
nuclei were pelleted by centrifugation (600 rcf, 4°C, 5 min). Pelleted nuclei were washed twice with 150 μL of detergent-free NIB buffer, followed by centrifugation (600 rcf, 4°C, 5 min) to remove all detergent.
Nuclei were then resuspended in 400 μL of 0.4 N H₂SO₄ and rotated at 4°C overnight for acid extraction of histones. The following day, samples were centrifuged (11,000 rcf, 4°C, 10 min) and the histone-containing supernatant was transferred to a fresh tube. Trichloroacetic acid (100% TCA) was added to achieve a final concentration of 20% (v/v), tubes were inverted once to mix, and histone precipitation was performed on ice for at least 3 hours or overnight at 4°C. Precipitated histones were collected by centrifugation (11,000 rcf, 4°C, 10 min) and the supernatant carefully removed, leaving a visible film of histones on the tube wall or bottom. Histone pellets were subjected to sequential washes with 1 mL of ice-cold acidified acetone (0.1% 12 N HCl) followed by 1 mL of 100% ice-cold acetone, with centrifugation (11,000 rcf, 4°C, 5 min) after each wash. Samples were air-dried at room temperature, resuspended in 40 µL of ddH₂O, and protein […]
analysis, 1-2 µg of purified histones were loaded per lane and processed according to the general immunoblotting protocol described in General Materials and Methods.
Analysis of histone modifications by LC-MS/MS
Preparation of histone samples for LC-MS/MS was performed analogously to the procedure for immunoblotting above, with the following modifications. MCF7 cells (4.2 × 106) were seeded in 15 cm dishes and treated with PF-9363 or vehicle. Experiments were performed in triplicate. Following treatment and PBS washing, cells were scraped and collected in 15 mL falcon tubes, pelleted (500 rcf, 4°C, 5 min), resuspended in 1 mL cold PBS, transferred to microcentrifuge tubes, and pelleted again before flash-freezing in liquid nitrogen for storage at -80°C. For extraction, cell pellets (~100 μL) were resuspended in NIB buffer at a 1:10 ratio, and cells were lysed with NIB buffer containing 0.2% NP-40 for 8 minutes on ice. Nuclei were pelleted at 1,000 rcf for 8 minutes and washed three times with 500 μL detergent-free NIB buffer. Histones were extracted using 800 μL of 0.2 M H₂SO₄, and after centrifugation (3,400 rcf, 4°C, 10

SMILES: COc1cccc(OC)c1S(=O)(=O)Nc1noc2cc(Cn3cccn3)cc(OC)c12 [PF-9363]
- Ratio, H2A1_4_11 unmod (PF-9363 1): 0.8988 and 0.8885 and 0.9043
- Ratio, H2A1_36_42 unmod (PF-9363 1): 0.9987 (2×) and 0.999
- Ratio, H2A3_36_42 unmod (PF-9363 1): 1
- Ratio, H2AJ_4_11 K5acK9ac (PF-9363 1): 0.8841 and 0.8218 and 0.8897
- Ratio, H2AV_1_19 K4ac (PF-9363 1): 0.04613 and 0.03379 and 0.05235
- Ratio, H2AV_1_19 unmod (PF-9363 1): 0.7904 and 0.9003 and 0.7876
- Ratio, H2AX_4_11 unmod (PF-9363 1): 0.3103 and 0.2578 and 0.2996
- Ratio, H2AX_36_42 unmod (PF-9363 1): 1
- Ratio, H2AZ_1_19 K11ac (PF-9363 1): 0.007104 and 0.02367 and 0.02119
- Ratio, H2AZ_1_19 unmod (PF-9363 1): 0.8748 and 0.8677 and 0.8766
- Ratio, H3_73_83 K79me1 (PF-9363 1): 0.08571 and 0.09293 and 0.08865
- Ratio, H3_73_83 K79me2 (PF-9363 1): 0.07582 and 0.06553 and 0.05074
- Ratio, H3_73_83 unmod (PF-9363 1): 0.8373 and 0.84 and 0.8592
- Ratio, H4_4_17 K12acK16ac (PF-9363 1): 0.009843 and 0.01149 and 0.01038
- Ratio, H4_4_17 unmod (PF-9363 1): 0.6943 and 0.6691 and 0.6837
- Ratio, H4_20_23 K20me1 (PF-9363 1): 0.04112 and 0.02779 and 0.03237
- Ratio, H4_20_23 unmod (PF-9363 1): 0.02967 and 0.03053 and 0.03337
- Ratio, H2A1_1_11 K5ac (PF-9363 10): 0.7349 and 0.6528 and 0.8541
- Ratio, H2A1_4_11 K5ac (PF-9363 10): 0.05941 and 0.05561 and 0.05439
- Ratio, H2A1_4_11 K9ac (PF-9363 10): 0.0376 and 0.02679 and 0.04578
- Ratio, H2A1_4_11 unmod (PF-9363 10): 0.8844 and 0.9105 and 0.8938
- Ratio, H2A1_36_42 unmod (PF-9363 10): 0.9994 and 0.9989 and 0.9987
- Ratio, H2A3_36_42 unmod (PF-9363 10): 1
- Ratio, H2AJ_4_11 K5acK9ac (PF-9363 10): 0.87 and 0.9304 and 0.8571
- Ratio, H2AV_1_19 K4ac (PF-9363 10): 0.03545 and 0 and 0.04516
- Ratio, H2AV_1_19 unmod (PF-9363 10): 0.7519 and 0 and 0.8693
- Ratio, H2AX_4_11 unmod (PF-9363 10): 0.3078 and 0.3089 and 0.315
- Ratio, H2AX_36_42 unmod (PF-9363 10): 0.9999 and 1 (2×)
- Ratio, H2AZ_1_19 K11ac (PF-9363 10): 0.002627 and 0 and 0.03573
- Ratio, H2AZ_1_19 unmod (PF-9363 10): 0.8481 and 0 and 0.8795
- Ratio, H3_73_83 K79me1 (PF-9363 10): 0.0968 and 0.09055 and 0.1061
- Ratio, H3_73_83 K79me2 (PF-9363 10): 0.04989 and 0 and 0.05862
- Ratio, H3_73_83 unmod (PF-9363 10): 0.8517 and 0.9094 and 0.8343
- Ratio, H4_4_17 K12acK16ac (PF-9363 10): 0.004929 and 0.3101 and 0.006064
- Ratio, H4_4_17 unmod (PF-9363 10): 0.8097 and 0 and 0.7957
- Ratio, H4_20_23 K20me1 (PF-9363 10): 0.03215 and 0 and 0.02863
- Ratio, H4_20_23 unmod (PF-9363 10): 0.01905 and 0.02691 and 0.02102
- Ratio, H2A1_1_11 K5ac (PF-9363 30): 0.8425 and 0.9367 and 0.7907
- Ratio, H2A1_4_11 K5ac (PF-9363 30): 0.04965 and 0.0448 and 0.04948
- Ratio, H2A1_4_11 K9ac (PF-9363 30): 0.02646 and 0.04262 and 0.03503
- Ratio, H2A1_4_11 unmod (PF-9363 30): 0.9191 and 0.9063 and 0.9088
- Ratio, H2A1_36_42 unmod (PF-9363 30): 0.9989 and 0.9987 and 0.9988
- Ratio, H2A3_36_42 unmod (PF-9363 30): 1
- Ratio, H2AJ_4_11 K5acK9ac (PF-9363 30): 0.9299 and 0.8746 and 0.8721
- Ratio, H2AV_1_19 K4ac (PF-9363 30): 0.04726 and 0.04134 and 0.0354
- Ratio, H2AV_1_19 unmod (PF-9363 30): 0.8732 and 0.735 and 0.7339
- Ratio, H2AX_4_11 unmod (PF-9363 30): 0.3537 and 0.3214 and 0.3151
- Ratio, H2AX_36_42 unmod (PF-9363 30): 1
- Ratio, H2AZ_1_19 K11ac (PF-9363 30): 0 and 0.03845 and 0.003881
- Ratio, H2AZ_1_19 unmod (PF-9363 30): 1 and 0.8991 and 0.9454
- Ratio, H3_73_83 K79me1 (PF-9363 30): 0.07412 and 0.08491 and 0.08741
- Ratio, H3_73_83 K79me2 (PF-9363 30): 0.05912 and 0.06141 and 0.04678
- Ratio, H3_73_83 unmod (PF-9363 30): 0.865 and 0.8523 and 0.8643
- Ratio, H4_4_17 K12acK16ac (PF-9363 30): 0.3308 and 0.002262 and 0.2125
- Ratio, H4_4_17 unmod (PF-9363 30): 0.05921 and 0.8851 and 0.358
- Ratio, H4_20_23 K20me1 (PF-9363 30): 0 and 0.03437 and 0.03685
- Ratio, H4_20_23 unmod (PF-9363 30): 0.02728 and 0.02218 and 0.01429
